US12091425B2 (AMGEN INC., priority 2016, dated 2024)
pIC50: −log10 of the molar value.

Legend:
[1] = molecular target: T1, Mcl-1/Bim interaction, recombinant human Mcl-1 (171-327) (Homo sapiens, UniProt Q07820); assay: Cell free Mcl-1: Bim Affinity Assay (Mcl-1 HTRF); assay type: binding
T1 construct: made in house
Method in brief: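 TR-FRET competition assay with biotinylated human Bim peptide (residues 51-76); reaction plates incubated overnight before reading. IC50 values came from duplicate data fitted to a four-parameter sigmoidal competition curve.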

[2] = tested on: OPM-2 human multiple myeloma cell line; assay: Cell Viability Assay (OPM-2 10 FBS); assay type: cell-based; conditions: OPM-2 cells, CellTiter-Glo
Method: Cell Viability Assay (OPM-2 10 FBS)
Cells were seeded into 384-well plates at 3000 cells/well density in complete growth medium containing 10% FBS, and incubated for 16 h with serially diluted test compounds in a 37° C. incubator with 5% CO2. Cell viability was tested using CellTiter-Glo® assay (Promega, Madison, WI) according to the manufacturer recommendations. Luminescence was determined using an EnVision® Multilabel plate reader 25 min after the addition of detection reagent. IC50 values were then calculated with Xlfit using a logistical 4-parameter fit model in GraphPad Prism (GraphPad Software, San Diego, CA) or in Genedata Screener® (Genedata, Basel, Switzerland).

[3] = TR-FRET, 0.1 nM Mcl-1 (171-327), 0.05 nM biotin-Bim (51-76)
[4] = Homo sapiens, OPM-2, 16 h, 16 h
[5] = cell free Mcl-1:Bim TR-FRET, recombinant human Mcl-1 (171-327)
[6] = Homo sapiens, OPM-2, 16 h, 16 h incubation

T1 sequence (Q07820 171-327): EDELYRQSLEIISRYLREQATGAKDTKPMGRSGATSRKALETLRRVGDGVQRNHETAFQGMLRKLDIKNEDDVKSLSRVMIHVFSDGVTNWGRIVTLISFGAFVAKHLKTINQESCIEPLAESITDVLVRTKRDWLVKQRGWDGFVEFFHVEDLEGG

| SMILES | pIC50 [1, 3] | pIC50 [2, 4] | other results |
| --- | --- | --- | --- |
| CC[C@H](O[C@H]1/C=C/C[C@H](C)[C@@H](C)S(=O)(=O)NC(=O)c2ccc3c(c2)N(C[C@@H]2CC[C@H]21)C[C@@]1(CCCc2cc(Cl)ccc21)CO3)C(=O)N(C)C (single isomer, unassigned) [Example 430] | 9.13 |  | pIC50 ([2]; 16 h): 6.66 |
| C[C@@H]1CS(=O)(=O)NC(=O)c2ccc3c(c2)N(C[C@@H]2CC[C@H]2[C@@H]2C[C@H](CCO2)O1)C[C@@]1(CCCc2cc(Cl)ccc21)CO3 (single isomer, unassigned) [Example 922] |  |  | pIC50 [1, 5]: 9.01; pIC50 ([2]; 16 h): 5.62 |
| O=C1NS(=O)(=O)CCC[C@]2(O)CCO[C@H](C2)[C@@H]2CC[C@H]2CN2C[C@@]3(CCCc4cc(Cl)ccc43)COc3ccc1cc32 (single isomer, unassigned) [Example 901] |  |  | pIC50 [1, 5]: 9.25; pIC50 ([2]; 16 h): 5.26 |
| CN(C)S(=O)(=O)CCO[C@@H]1/C=C/CCCS(=O)(=O)NC(=O)c2ccc3c(c2)N(C[C@@H]2CC[C@H]21)C[C@@]1(CCCc2cc(Cl)ccc21)CO3 [Example 219, 2-(((1S,3′R,6′R,7′R,8′E)-6-chloro-13′,13′-dioxido-15′-oxo-3,4-dihydro-2H-spiro[naphthalene-1,22′-[20]oxa[13]thia[1,14]diazatetracyclo[14.7.2.0^3,6.0^19,24]pentacosa [8,16,18,24]tetraen]-7′-yl)oxy)-N,N-dimethylethanesulfonamide] | 8.62 | 5.74 |  |
| CC[C@@H]1C[C@H](C)/C=C/[C@H](O)[C@@H]2CC[C@H]2CN2C[C@@]3(CCCc4cc(Cl)ccc43)COc3ccc(cc32)C(=O)NS1(=O)=O (single isomer, unassigned) [Example 1024] | 9.53 |  | pIC50 ([2]; 16 h incubation): 6.38 |
| COCC[C@@H]1C[C@@H](C)/C=C/[C@H](O)[C@@H]2CC[C@H]2CN2C[C@@]3(CCCc4cc(Cl)ccc43)COc3ccc(cc32)C(=O)NS1(=O)=O (single isomer, unassigned) [Example 477] |  |  | pIC50 [1, 5]: 9.51; pIC50 ([2]; 16 h): 6.54 |
| COCCO[C@H]1/C=C/C[C@@H]2COC[C@H]2S(=O)(=O)NC(=O)c2ccc3c(c2)N(C[C@@H]2CC[C@H]21)C[C@@]1(CCCc2cc(Cl)ccc21)CO3 (single isomer, unassigned) [Example 1033] | 9.44 |  | pIC50 ([2]; 16 h incubation): 6.69 |
| CC[C@@H]1CC/C=C/[C@H](OCCC(=O)N2CCOCC2)[C@@H]2CC[C@H]2CN2C[C@@]3(CCCc4cc(Cl)ccc43)COc3ccc(cc32)C(=O)NS1(=O)=O [Example 1011, (1S,3′R,6′R,7′S,8′E,12′R)-6-chloro-12′-ethyl-7′-(3-(4-morpholinyl)-3-oxopropoxy)-3,4-dihydro-2H,15′H-spiro[naphthalene-1,22′-[20]oxa[13]thia[1,14]diazatetracyclo[14.7.2.0^3,6.0^19,24]pentacosa [8,16,18,24]tetraen]-15′-one 13′,13′-dioxide] | 9.46 |  | pIC50 [2, 6]: 6.28 |
| COC1C=CCCC(C(=O)N(C)C)S(=O)(=O)NC(=O)c2ccc3c(c2)N(CC2CCC21)CC1(CCCc2cc(Cl)ccc21)CO3 (single isomer, unassigned) [Example 453] | 8.17 |  | pIC50 ([2]; 16 h): 4.68 |
| C[C@@H]1C/C=C/[C@H](O)[C@@H]2CC[C@H]2CN2C[C@@]3(CCCc4cc(Cl)ccc43)COc3ccc(cc32)C(=O)NS(=O)(=O)N1C[C@@H]1CCCO1 (single isomer, unassigned) [Example 51] | 8.25 | 5.74 |  |
| COCCO[C@H]1CC[C@@H](C)C[C@@H](COC)S(=O)(=O)NC(=O)c2ccc3c(c2)N(C[C@@H]2CC[C@H]21)C[C@@]1(CCCc2cc(Cl)ccc21)CO3 (single isomer, unassigned) [Example 1040] | 8.98 |  | pIC50 ([2]; 16 h incubation): 5.66 |

The next lines start with results.

| pIC50 [1, 3] | pIC50 [2, 4] | SMILES | other results |
| --- | --- | --- | --- |
| 9.60 | 6.55 | O=C1NS(=O)(=O)[C@@H]2CCCC[C@H]2C/C=C/[C@H](O)[C@@H]2CC[C@H]2CN2C[C@@]3(CCCc4cc(Cl)ccc43)COc3ccc1cc32 (single isomer, unassigned) [Example 331] |  |
| 7.88 | 4.64 | O=C1NS(=O)(=O)CCCCCC[C@@H](O)[C@@H]2CC[C@H]2CN2C[C@@]3(CCCc4cc(Cl)ccc43)COc3ccc1cc32 [Example 228, (1S,3′R,6′R,7′R)-6-chloro-7′-hydroxy-3,4-dihydro-2H,16′H-spiro[naphthalene-1,23′-[21]oxa[14]thia[1,15]diazatetracyclo[15.7.2.0^3,6.0^20,25]hexacosa[17,19,25]trien]-16′-one 14′,14′-dioxide] |  |
| 9.62 | 6.09 | C[C@@H]1[C@@H](C)C/C=C/[C@H](OCC(=O)N(C)CCN(C)C)[C@@H]2CC[C@H]2CN2C[C@@]3(CCCc4cc(Cl)ccc43)COc3ccc(cc32)C(=O)NS1(=O)=O [Example 300, 2-(((1S,3′R,6′R,7′S,8′E,11′S,12′R)-6-chloro-11′,12′-dimethyl-13′,13′-dioxido-15′-oxo-3,4-dihydro-2H-spiro[naphthalene-1,22′-[20]oxa[13]thia[1,14]diazatetracyclo[14.7.2.0^3,6.0^19,24]pentacosa [8,16,18,24]tetraen]-7′-yl)oxy)-N-(2-(dimethylamino)ethyl)-N-methylacetamide] |  |
| 9.01 |  | C[C@@H]1[C@@H](C)C[C@H](CC(=O)N2CC(O)C2)/C=C/[C@@H]2CC[C@H]2CN2C[C@@]3(CCCc4cc(Cl)ccc43)COc3ccc(cc32)C(=O)NS1(=O)=O [Example 1074, (1S,3′R,6′S,7′E,9′R,11′S,12′R)-6-chloro-9′-(2-(3-hydroxy-1-azetidinyl)-2-oxoethyl)-11′,12′-dimethyl-3,4-dihydro-2H,15′H-spiro[naphthalene-1,22′-[20]oxa[13]thia[1,14]diazatetracyclo[14.7.2.0^3,6.0^19,24]pentacosa [7,16,18,24]tetraen]-15′-one 13′,13′-dioxide] | pIC50 [2, 6]: 5.41 |
|  | 6.21 | CC[C@@H]1CC/C=C\C(=O)[C@@H]2CC[C@H]2CN2C[C@@]3(CCCc4cc(Cl)ccc43)COc3ccc(cc32)C(=O)NS1(=O)=O (single isomer, unassigned) [Example 885] | pIC50 [1, 5]: 7.74 |
| 9.25 | 5.84 | C[C@@H]1CC/C=C/[C@H](O)[C@@H]2CC[C@H]2CN2C[C@@]3(CCC(F)(F)c4cc(Cl)ccc43)COc3ccc(cc32)C(=O)NS1(=O)=O [Example 8, (1S,3′R,6′R,7′S,8′E,12′R)-6-chloro-4,4-difluoro-7′-hydroxy-12′-methyl-3,4-dihydro-2H,15′H-spiro[naphthalene-1,22′-[20]oxa[13]thia[1,14]diazatetracyclo[14.7.2.0^3,6.0^19,24]pentacosa [8,16,18,24]tetraen]-15′-one 13′,13′-dioxide] |  |
|  | 5.63 | O=C1NS(=O)(=O)N(CC2CCCO2)C/C=C/[C@H](O)[C@@H]2CC[C@H]2CN2C[C@@]3(CCCc4cc(Cl)ccc43)COc3ccc1cc32 (mixture of isomers) [Example 691] | pIC50 [1, 5]: 8.74 |
| 8.70 | 5.58 | O=C1NS(=O)(=O)CCC/C=C/[C@@H](OCCO)[C@@H]2CC[C@H]2CN2C[C@@]3(CCCc4cc(Cl)ccc43)COc3ccc1cc32 [Example 220, (1S,3′R,6′R,7′R,8′E)-6-chloro-7′-(2-hydroxyethoxy)-3,4-dihydro-2H,15′H-spiro[naphthalene-1,22′-[20]oxa[13]thia[1,14]diazatetracyclo[14.7.2.0^3,6.0^19,24]pentacosa [8,16,18,24]tetraen]-15′-one 13′,13′-dioxide] |  |
